Reference: US7053108B2, “Indoline compounds” (Les Laboratoires Servier, priority 2002, dated 2006)

Key:
Type in all cases: in vivo
[1] = test system: extracellular concentrations of dopamine and noradrenaline in the frontal cortex; experiment: Measurement of the extracellular concentrations of dopamine and noradrenaline in the frontal cortex of the conscious rat (microdialysis); settings: 40.0 mg/kg p.o., 30 minutes post administration, frontal cortex dialysate
Protocol: Measurement of the Extracellular Concentrations of Dopamine and Noradrenaline in the Frontal Cortex of the Conscious Rat
Dialysis. The surgery is performed under pentobarbital-induced anaesthesia (60 mg/kg, i.p.). The rats are placed in a Kopf stereotaxic device and a cannula guide (CMA Microdialysis AB, Stockholm, Sweden) is implanted in the frontal cortex at the coordinates: anteroposterior: +2.2, lateral: ±0.6, ventral deviation: −0.2. The rats are placed in separate cages and recover from the anaesthesia over 5 days. […]
Chromatography. Dopamine (DA) and noradrenaline (NA) are simultaneously measured as follows: 20 μl of dialysate sample are diluted with 20 μl of mobile phase (75 mM NaH2PO4, 20 μM EDTA, 1 mM sodium decanesulphonate, 17.5% methanol, 0.01% triethylamine, pH: 5.70) and 33 μl are analysed by HPLC using, for separation, an inversephase column (Hypersil C18, 150×4.6 mm; particle size 5 μm) thermostatically controlled at 43° C. and, for quantification, a coulometric detector (ESA5014, Coulochem II, ESA, Chelmsford, USA). […]
The compound of Example 1 (40.0 mg/kg, p.o.) causes a substantial increase in the extracellular concentrations of DA and NA in the dialysates collected from the frontal cortex of conscious rats. The data are expressed as the mean ±S.E.M. The levels of DA and NA are expressed with respect to the mean values before administration of the drug. […]

5-HT2c receptors = target: T1, 5-HT2c receptors (Rattus norvegicus, UniProt P08909); experiment: Penile erection test following administration of Ro 60-0175 (1.25 mg/kg, s.c.) in the rat; settings: Wistar rat; for % inhibition of penile erections: Ro 60-0175 1.25 mg/kg s.c. 30 min later
T1 construct: from tissue; host or cells: whole living male Wistar rat (in vivo)
T1 sequence (P08909 33-460): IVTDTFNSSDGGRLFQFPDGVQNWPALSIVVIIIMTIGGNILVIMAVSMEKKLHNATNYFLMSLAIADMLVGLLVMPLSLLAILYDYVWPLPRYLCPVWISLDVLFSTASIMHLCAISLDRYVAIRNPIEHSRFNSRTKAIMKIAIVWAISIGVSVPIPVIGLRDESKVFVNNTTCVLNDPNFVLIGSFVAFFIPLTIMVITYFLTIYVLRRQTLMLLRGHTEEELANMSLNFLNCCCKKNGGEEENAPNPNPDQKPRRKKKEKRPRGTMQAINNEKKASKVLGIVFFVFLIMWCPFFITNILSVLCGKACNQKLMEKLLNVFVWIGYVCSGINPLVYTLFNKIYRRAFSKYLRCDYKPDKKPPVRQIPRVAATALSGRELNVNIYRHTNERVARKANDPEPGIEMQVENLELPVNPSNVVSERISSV
Protocol: Penile Erection Test Following Administration of Ro 60-0175 (1.25 mg/kg, s.c.) in the Rat
This test allows evaluation of the capacity of pharmacological agents to inhibit penile erections caused by administration of a selective 5-HT2c agonist, Ro 60-0175. Inhibition is therefore predictive of antagonist activity with respect to 5-HT2c receptors. Male rats of the Wistar strain (Iffa-Credo, L'Arbresle, France) weighing 120–140 g on the day of the experiment are placed separately in plexiglass observation boxes (7.5×18×30 cm) immediately after the compound or the carrier has been administered. Thirty minutes later, Ro 60-0175 (1.25 mg/kg, s.c.) is administered to the animals and the number of erections occurring during the next 30 minutes is counted.

[2] = Social interaction test in the rat; settings: 1 hour before the test, Sprague-Dawley rat, carrier 183 ± 7
Protocol: Social Interaction Test in the Rat
This test allows evaluation of the potential anxiolytic activity of the compounds. Male rats of the Sprague-Dawley strain (Charles River, Saint-Aubin-les-Elbeuf, France) weighing 240–260 g on arrival are isolated in individual cages for 5 days in dimly lit animal quarters (3–10 lux). The test is carried out on the final day and consists of placing the animals in pairs, matched by weight (±5 g), in a brightly lit enclosure (300 lux) for 10 minutes. The time spent by the animals in interacting with one another (grooming, chasing, . . . ) is measured. The compound or the carrier is administered to the animals 1 hour before the test, each couple receiving the same treatment. The anxiolytic effect of a compound is reflected by an increased duration of interaction compared to that of animals to whom the carrier has been administered.

Vogel conflict test = settings: 30 minutes before test, 3 minutes, Wistar rat, carrier 77.1 ± 14.7
Protocol: The test is carried out in a transparent plastics cage (32×25×30 cm) located in a soundproofed and ventilated enclosure. The cage has a chrome steel floor. The metal tip of the drink-containing bottle enters the cage at a height of 6 cm above the metal floor. The floor and the tip of the bottle are connected by electric cables to an “Anxiometer” apparatus (Columbus Instruments, Ohio, USA), which records the licks of the animal and controls the administration of electric shocks.
For the 4 days preceding the test, the rats (male Wistar rats weighing 250–270 g) (3 per cage) have access to drink for only one hour per day. On the day before the test, the animals are isolated in cages, on grills, without food or drink, immediately after their final hour of access to drink. The test takes place on the 5th day. On the day of the test, the animal is given by gavage (p.o.) either the solvent (suspension of distilled water+Tween 80) (control) or the compound, 30 minutes before being placed in the test cage. The session begins as soon as the animal has carried out 20 licks and has received a first electric shock (between the metal tip and metal floor), (constant current, 0.5 sec. duration, 0.3 mA intensity). Subsequently, the animal receives an electric shock each time it carries out 20 licks, for a period of 3 minutes. Animals not having performed the first 20 licks of the session by the end of 5 minutes are withdrawn from the test. The results are the numbers of licks performed by the animal during the 3 minutes of the test.

SMILES: O=C(Nc1cccnc1)N1CCc2c1ccc1ccccc21 [Example 1, N-(3-Pyridyl)-1,2-dihydro-3H-benzo[e]indole-3-carboxamide]
- Extracellular DA level with respect to the mean values before administration (mean ±S.E.M.) ([1]; solvent = +3.9±9.8, in % (unit assumed)): +95.0±12.9
- Extracellular NA level with respect to the mean values before administration (mean ±S.E.M.) ([1]; solvent = +8.7±11.9, in % (unit assumed)): +118.2±16.7
- % inhibition of penile erections (5-HT2c receptors; 0.25 mg/kg p.o.): 12%
- % inhibition of penile erections (5-HT2c receptors; 0.63 mg/kg p.o.): 16%
- % inhibition of penile erections (5-HT2c receptors; 1.00 mg/kg p.o.): 50%
- % inhibition of penile erections (5-HT2c receptors; 2.5 mg/kg p.o.): 88%
- % inhibition of penile erections (5-HT2c receptors; 10.0 mg/kg p.o.): 100%
- ED50 (5-HT2c receptors; po, inhibition of Ro 60-0175-induced penile erections, p.o., read-out: ID50 (inhibitory dose50)): 1.16 mg/kg
- Duration of social interactions (s) mean ± s.e.m. (n) ([2]; 0.16 mg/kg p.o.): 187 ± 11 (5) s
- Duration of social interactions (s) mean ± s.e.m. (n) ([2]; 0.63 mg/kg p.o., p < 0.05): 228 ± 11 (5) s
- Duration of social interactions (s) mean ± s.e.m. (n) ([2]; 2.5 mg/kg p.o., p < 0.05): 242 ± 15 (5) s
- Duration of social interactions (s) mean ± s.e.m. (n) ([2]; 10.0 mg/kg p.o., p < 0.05): 233 ± 10 (5) s
- Punished licks (1 shock/20 licks) Mean ± s.e.m. (n) (Vogel conflict test; 2.5 mg/kg p.o.): 92.2 ± 20.7 (5)
- Punished licks (1 shock/20 licks) Mean ± s.e.m. (n) (Vogel conflict test; 10.0 mg/kg p.o.): 145.2 ± 46.3 (5)
- Punished licks (1 shock/20 licks) Mean ± s.e.m. (n) (Vogel conflict test; 40.0 mg/kg p.o., p < 0.05): 324.4 ± 70.7 (10)
